Test results published in patent US10040781B2, “Tank-binding kinase inhibitor compounds” (Gilead Sciences, Inc., priority 2014, dated 2018).

How the values were obtained:
TBK1 = TBK1 (Homo sapiens (Human), UniProt Q9UHD2); assay: TBK1 TR-FRET enzymatic assay;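 further: phosphorylation of a biotinylated Ser/Thr peptide by purified full-length recombinant TBK1, read by TR-FRET after 240 min at 25 °C, IC50 is the geometric mean of at least four runs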
IKKε = IKKε (Homo sapiens (Human), UniProt Q14164); assay: IKKε TR-FRET enzymatic assay; assay type: biochemical; conditions: TR-FRET, 2×Km ATP; geometric mean of minimum four determinations; read-out: IKKe IC50
hJAK2 = hJAK2 (Homo sapiens (Human), UniProt O60674); assay: hJAK2 LANCE TR-FRET enzymatic assay; assay type: biochemical; conditions: read-out: JAK2 IC50
hJAK2, sequence (O60674 whole entry): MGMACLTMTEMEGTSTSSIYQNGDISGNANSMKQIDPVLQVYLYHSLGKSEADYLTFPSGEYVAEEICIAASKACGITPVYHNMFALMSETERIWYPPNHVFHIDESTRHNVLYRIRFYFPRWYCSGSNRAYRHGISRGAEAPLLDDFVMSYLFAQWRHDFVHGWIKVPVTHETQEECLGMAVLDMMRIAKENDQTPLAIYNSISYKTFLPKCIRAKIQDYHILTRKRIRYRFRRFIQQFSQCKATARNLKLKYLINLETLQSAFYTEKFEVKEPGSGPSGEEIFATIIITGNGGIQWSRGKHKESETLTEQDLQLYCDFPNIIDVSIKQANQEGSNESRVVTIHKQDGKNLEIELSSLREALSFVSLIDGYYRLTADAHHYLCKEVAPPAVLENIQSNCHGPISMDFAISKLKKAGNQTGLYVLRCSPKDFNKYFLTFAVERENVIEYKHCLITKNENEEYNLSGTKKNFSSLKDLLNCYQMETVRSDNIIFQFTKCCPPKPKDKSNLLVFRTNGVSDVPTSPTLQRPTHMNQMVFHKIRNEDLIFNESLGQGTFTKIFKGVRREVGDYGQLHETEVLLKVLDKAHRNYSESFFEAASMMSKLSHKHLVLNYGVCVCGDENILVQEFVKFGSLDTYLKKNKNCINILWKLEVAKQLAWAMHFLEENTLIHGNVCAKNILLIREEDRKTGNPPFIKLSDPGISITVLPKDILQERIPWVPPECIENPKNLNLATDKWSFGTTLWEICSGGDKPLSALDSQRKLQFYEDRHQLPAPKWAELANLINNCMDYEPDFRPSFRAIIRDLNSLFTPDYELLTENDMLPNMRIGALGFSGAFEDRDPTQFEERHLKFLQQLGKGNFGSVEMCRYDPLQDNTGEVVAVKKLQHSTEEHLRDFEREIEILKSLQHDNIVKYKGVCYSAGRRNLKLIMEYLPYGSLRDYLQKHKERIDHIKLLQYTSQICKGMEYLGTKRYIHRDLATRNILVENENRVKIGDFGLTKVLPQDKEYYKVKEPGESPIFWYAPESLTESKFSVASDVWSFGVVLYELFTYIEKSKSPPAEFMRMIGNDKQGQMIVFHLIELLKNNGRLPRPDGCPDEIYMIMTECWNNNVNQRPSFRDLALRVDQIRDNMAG

TBK1, sequence (Q9UHD2 whole entry): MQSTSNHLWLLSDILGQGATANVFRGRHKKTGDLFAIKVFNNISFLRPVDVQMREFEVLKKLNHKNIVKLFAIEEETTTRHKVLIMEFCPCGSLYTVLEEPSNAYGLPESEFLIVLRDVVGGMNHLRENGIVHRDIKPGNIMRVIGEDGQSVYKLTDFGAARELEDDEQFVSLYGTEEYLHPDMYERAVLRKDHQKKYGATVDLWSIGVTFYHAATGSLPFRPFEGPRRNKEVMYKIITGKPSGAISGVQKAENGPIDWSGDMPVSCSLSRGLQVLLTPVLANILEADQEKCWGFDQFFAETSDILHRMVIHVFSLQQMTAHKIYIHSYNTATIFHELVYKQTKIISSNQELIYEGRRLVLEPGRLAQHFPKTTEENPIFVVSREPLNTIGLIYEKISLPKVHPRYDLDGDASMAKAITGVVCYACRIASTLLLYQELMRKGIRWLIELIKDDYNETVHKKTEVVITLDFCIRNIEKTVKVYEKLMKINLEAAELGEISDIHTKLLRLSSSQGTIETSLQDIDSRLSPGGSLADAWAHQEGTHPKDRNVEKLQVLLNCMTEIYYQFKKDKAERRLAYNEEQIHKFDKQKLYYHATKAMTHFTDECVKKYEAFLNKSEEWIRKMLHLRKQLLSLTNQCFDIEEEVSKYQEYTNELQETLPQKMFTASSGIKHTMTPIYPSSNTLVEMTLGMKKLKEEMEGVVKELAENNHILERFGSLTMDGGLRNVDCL
IKKε, sequence (Q14164 whole entry): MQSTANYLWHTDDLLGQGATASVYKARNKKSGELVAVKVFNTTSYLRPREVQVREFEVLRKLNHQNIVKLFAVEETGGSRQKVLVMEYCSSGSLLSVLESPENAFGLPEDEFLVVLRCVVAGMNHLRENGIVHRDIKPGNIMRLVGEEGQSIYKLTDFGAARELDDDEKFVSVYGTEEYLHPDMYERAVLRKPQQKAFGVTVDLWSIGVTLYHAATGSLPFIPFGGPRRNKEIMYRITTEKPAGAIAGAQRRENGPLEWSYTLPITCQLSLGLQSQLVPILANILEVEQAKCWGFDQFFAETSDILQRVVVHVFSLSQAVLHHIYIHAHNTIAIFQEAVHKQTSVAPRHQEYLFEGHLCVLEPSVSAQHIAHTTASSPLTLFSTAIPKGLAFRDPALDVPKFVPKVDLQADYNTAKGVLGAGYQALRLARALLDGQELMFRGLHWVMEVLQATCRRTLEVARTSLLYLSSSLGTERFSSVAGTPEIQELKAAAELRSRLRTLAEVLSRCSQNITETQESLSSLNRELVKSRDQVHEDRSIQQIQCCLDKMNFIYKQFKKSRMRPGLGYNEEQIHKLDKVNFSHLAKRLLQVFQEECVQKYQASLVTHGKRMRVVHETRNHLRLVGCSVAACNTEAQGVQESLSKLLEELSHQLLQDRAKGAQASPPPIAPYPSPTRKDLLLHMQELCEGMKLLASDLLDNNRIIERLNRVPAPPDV

| IC50 (TBK1) [nM] | IC50 (IKKε) [nM] | IC50 (hJAK2) [nM] | SMILES |
| --- | --- | --- | --- |
| 3 | 3 | 163 | N#Cc1cc(-c2ncnc(Nc3ccc(N4CCN(C5COC5)CC4)cc3)n2)ccc1O[C@H]1CCN(C(=O)C2CNC(=O)N2)C[C@H]1F (stereo partly drawn) [Example 414, 2-(((3R,4S)-3-fluoro-1-(2-oxoimidazolidine-4-carbonyl)piperidin-4-yl)oxy)-5-(4-((4-(4-(oxetan-3-yl)piperazin-1-yl)phenyl)amino)-1,3,5-triazin-2-yl)benzonitrile] |
| 80 | 156 | 60 | CN1CC(Oc2ccc(-c3ncnc(Nc4ccc(N5CCN(C6COC6)CC5)cc4)n3)cc2C#N)CNC1=O (stereo not drawn) [Example 421, 2-((1-methyl-2-oxohexahydropyrimidin-5-yl)oxy)-5-(4-((4-(4-(oxetan-3-yl)piperazin-1-yl)phenyl)amino)-1,3,5-triazin-2-yl)benzonitrile] |
| 16 | 55 | 681 | N#Cc1cc(-c2ncnc(Nc3ccc(N4CCN(C5COC5)CC4)cc3)n2)ccc1O[C@H]1CCN(C(=O)N2CC[C@@H](F)C2)C[C@H]1F [Example 423, 2-(((3R,4S)-3-fluoro-1-((R)-3-fluoropyrrolidine-1-carbonyl)piperidin-4-yl)oxy)-5-(4-((4-(4-(oxetan-3-yl)piperazin-1-yl)phenyl)amino)-1,3,5-triazin-2-yl)benzonitrile] |
| 6 | 12 | ≥ 1000 | N#Cc1cc(-c2ncnc(Nc3ccc(N4CCN(C5COC5)CC4)cc3)n2)ccc1O[C@H]1CCN(C(=O)N2CCCC2)C[C@H]1F [Example 424, 2-(((3R,4S)-3-fluoro-1-(pyrrolidine-1-carbonyl)piperidin-4-yl)oxy)-5-(4-((4-(4-(oxetan-3-yl)piperazin-1-yl)phenyl)amino)-1,3,5-triazin-2-yl)benzonitrile] |
| 7 | 21 | 590 | N#Cc1cc(-c2ncnc(Nc3ccc(N4CCN(C5COC5)CC4)cc3)n2)ccc1O[C@H]1CCN(C(=O)N2CC[C@@H](O)C2)C[C@H]1F [Example 425, 2-(((3R,4S)-3-fluoro-1-((R)-3-hydroxypyrrolidine-1-carbonyl)piperidin-4-yl)oxy)-5-(4-((4-(4-(oxetan-3-yl)piperazin-1-yl)phenyl)amino)-1,3,5-triazin-2-yl)benzonitrile] |
| 12 | 33 | 601 | N#Cc1cc(-c2ncnc(Nc3ccc(N4CCN(C5COC5)CC4)cc3)n2)ccc1O[C@H]1CCN(C(=O)NCCO)C[C@H]1F [Example 429, (3R,4S)-4-(2-cyano-4-(4-((4-(4-(oxetan-3-yl)piperazin-1-yl)phenyl)amino)-1,3,5-triazin-2-yl)phenoxy)-3-fluoro-N-(2-hydroxyethyl)piperidine-1-carboxamide] |

More lines, now with the values behind:

| SMILES | IC50 (TBK1) [nM] | IC50 (IKKε) [nM] | IC50 (hJAK2) [nM] |
| --- | --- | --- | --- |
| C[C@H](O)C(=O)N1C[C@@H](F)[C@@H](Oc2ccc(-c3ncnc(Nc4ccc(N5CCN(C6COC6)CC5)cc4)n3)cc2C#N)C[C@@H]1C [Example 415, 2-(((2S,4S,5R)-5-fluoro-1-((S)-2-hydroxypropanoyl)-2-methylpiperidin-4-yl)oxy)-5-(4-((4-(4-(oxetan-3-yl)piperazin-1-yl)phenyl)amino)-1,3,5-triazin-2-yl)benzonitrile] | 58 | 142 | ≥ 1000 |
| N#CCCC(=O)N1CC[C@H](Oc2ccc(-c3ncnc(Nc4ccc(N5CCN(C6COC6)CC5)cc4)n3)cc2C#N)[C@H](F)C1 [Example 417, 2-(((3R,4S)-1-(3-cyanopropanoyl)-3-fluoropiperidin-4-yl)oxy)-5-(4-((4-(4-(oxetan-3-yl)piperazin-1-yl)phenyl)amino)-1,3,5-triazin-2-yl)benzonitrile] | 17 | 79 | 694 |
| Cc1nnc(C(=O)N2CC[C@H](Oc3ccc(-c4ncnc(Nc5cnn(C(C)(C)C)c5)n4)cc3C#N)[C@H](F)C2)[nH]1 [Example 418, 5-(4-((1-(tert-butyl)-1H-pyrazol-4-yl)amino)-1,3,5-triazin-2-yl)-2-(((3R,4S)-3-fluoro-1-(5-methyl-4H-1,2,4-triazole-3-carbonyl)piperidin-4-yl)oxy)benzonitrile] | 4 | 2 | 212 |
| CC(C)(C)n1cc(Nc2ncnc(-c3ccc(O[C@H]4CCN(C(=O)[C@@H](O)CO)C[C@H]4F)c(C#N)c3)n2)cn1 [Example 419, 5-(4-((1-(tert-butyl)-1H-pyrazol-4-yl)amino)-1,3,5-triazin-2-yl)-2-(((3R,4S)-1-((S)-2,3-dihydroxypropanoyl)-3-fluoropiperidin-4-yl)oxy)benzonitrile] | 2 | 2 | 228 |
| CC(C)(C)n1cc(Nc2ncnc(-c3ccc(O[C@H]4CCN(C(=O)CO)C[C@H]4F)c(C#N)c3)n2)cn1 [Example 420, 5-(4-((1-(tert-butyl)-1H-pyrazol-4-yl)amino)-1,3,5-triazin-2-yl)-2-(((3R,4S)-3-fluoro-1-(2-hydroxyacetyl)piperidin-4-yl)oxy)benzonitrile] | 2 | 2 | 190 |
| CN1CC(Oc2ccc(-c3ncnc(Nc4ccc(N5CCN(C6COC6)CC5)cc4)n3)cc2C#N)CCC1=O (stereo not drawn) [Example 422, 2-((1-methyl-6-oxopiperidin-3-yl)oxy)-5-(4-((4-(4-(oxetan-3-yl)piperazin-1-yl)phenyl)amino)-1,3,5-triazin-2-yl)benzonitrile] | 65 | 156 | 849 |
| N#Cc1cc(-c2ncnc(Nc3ccc(N4CCN(C5COC5)CC4)cc3)n2)ccc1O[C@H]1CCN(C(=O)N2CC[C@H](O)C2)C[C@H]1F [Example 426, 2-(((3R,4S)-3-fluoro-1-((S)-3-hydroxypyrrolidine-1-carbonyl)piperidin-4-yl)oxy)-5-(4-((4-(4-(oxetan-3-yl)piperazin-1-yl)phenyl)amino)-1,3,5-triazin-2-yl)benzonitrile] | 79 | 201 | ≥ 1000 |
| COCCNC(=O)N1CC[C@H](Oc2ccc(-c3ncnc(Nc4ccc(N5CCN(C6COC6)CC5)cc4)n3)cc2C#N)[C@H](F)C1 [Example 427, (3R,4S)-4-(2-cyano-4-(4-((4-(4-(oxetan-3-yl)piperazin-1-yl)phenyl)amino)-1,3,5-triazin-2-yl)phenoxy)-3-fluoro-N-(2-methoxyethyl)piperidine-1-carboxamide] | 31 | 74 | ≥ 1000 |
| CN(CCO)C(=O)N1CC[C@H](Oc2ccc(-c3ncnc(Nc4ccc(N5CCN(C6COC6)CC5)cc4)n3)cc2C#N)[C@H](F)C1 [Example 428, (3R,4S)-4-(2-cyano-4-(4-((4-(4-(oxetan-3-yl)piperazin-1-yl)phenyl)amino)-1,3,5-triazin-2-yl)phenoxy)-3-fluoro-N-(2-hydroxyethyl)-N-methylpiperidine-1-carboxamide] | 41 | 64 | ≥ 1000 |
| C[C@H](O)C(=O)N1C[C@@H](C)[C@H](Oc2ccc(-c3ncnc(Nc4ccc(N5CCN(C6COC6)CC5)cc4)n3)cc2C#N)C(F)(F)C1 [Example 431, trans-2-((3,3-difluoro-1-((S)-2-hydroxypropanoyl)-5-methylpiperidin-4-yl)oxy)-5-(4-((4-(4-(oxetan-3-yl)piperazin-1-yl)phenyl)amino)-1,3,5-triazin-2-yl)benzonitrile] | 11 | 17 | 496 |
